Laboratory results published in ChEMBL document CHEMBL1201862, “PubChem BioAssay data set” (2004).
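Grown in 96-well plates, cells were treated for 48 hours with each compound at five concentrations. Insufficient inhibition: endpoint recorded as highest concentration tested. GI50: concentration for 50% inhibition of growth.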 Active and inactive are the calls of the source. Cut-off read from the data, not from the text of the source: active = GI50 up to about 1.1 µM and inactive = higher.

Experiments:
Experiment in all cases: NCI-60 cell line screen, 48 h
SK-MEL-5 = test system: SK-MEL-5
NCI-H23 = test system: NCI-H23
TK-10 = test system: TK-10
SF-295 = test system: SF-295
M14 = test system: M14
HCT-15 = test system: HCT-15
786-0 = test system: 786-0
M19-MEL = test system: M19-MEL
NCI-H522 = test system: NCI-H522
EKVX = test system: EKVX
NCI-H226 = test system: NCI-H226
SK-MEL-28 = test system: SK-MEL-28
UACC-62 = test system: UACC-62
HCC 2998 = test system: HCC 2998
HCT-116 = test system: HCT-116
COLO 205 = test system: COLO 205
U-251 = test system: U-251
RPMI-8226 = test system: RPMI-8226
LOX IMVI = test system: LOX IMVI
DMS-273 = test system: DMS-273
OVCAR-3 = test system: OVCAR-3
KM12 = test system: KM12
HT-29 = test system: HT-29
SNB-19 = test system: SNB-19
A549 = test system: A549
OVCAR-8 = test system: OVCAR-8
SK-MEL-2 = test system: SK-MEL-2
K562 = test system: K562
SK-OV-3 = test system: SK-OV-3
HOP-18 = test system: HOP-18
SN12C = test system: SN12C
LXFL 529 = test system: LXFL 529
DLD-1 = test system: DLD-1
KM-20L2 = test system: KM-20L2
SNB-78 = test system: SNB-78
HL-60 = test system: HL-60
ACHN = test system: ACHN
DMS-114 = test system: DMS-114
CCRF-CEM = test system: CCRF-CEM
HOP-92 = test system: HOP-92
SF-539 = test system: SF-539
SNB-75 = test system: SNB-75
OVCAR-4 = test system: OVCAR-4
MOLT-4 = test system: MOLT-4
SW-620 = test system: SW-620
IGROV-1 = test system: IGROV-1
UO-31 = test system: UO-31
HOP-62 = test system: HOP-62
RXF 393 = test system: RXF 393
A498 = test system: A498
NCI-H460 = test system: NCI-H460
SF-268 = test system: SF-268
Malme-3M = test system: Malme-3M
OVCAR-5 = test system: OVCAR-5
CAKI-1 = test system: CAKI-1
UACC-257 = test system: UACC-257
SR = test system: SR

Measured: GI50

O=C(O)/C=C/c1nc2ccccc2c(=O)o1
> 100 µM: HCT-15
inactive: SK-MEL-5 > 100 µM | NCI-H23 > 100 µM | TK-10 > 100 µM | SF-295 > 100 µM | M14 > 100 µM | 786-0 > 100 µM | M19-MEL > 100 µM | NCI-H522 > 100 µM | EKVX > 100 µM | NCI-H226 > 100 µM | SK-MEL-28 > 100 µM | UACC-62 > 100 µM | HCC 2998 > 100 µM | HCT-116 > 100 µM | COLO 205 > 100 µM | U-251 > 100 µM | RPMI-8226 > 100 µM | LOX IMVI > 100 µM | DMS-273 > 100 µM | OVCAR-3 > 100 µM | KM12 > 100 µM | HT-29 > 100 µM | SNB-19 > 100 µM | A549 > 100 µM | OVCAR-8 > 100 µM | SK-MEL-2 > 100 µM | K562 > 100 µM | SK-OV-3 > 100 µM | HOP-18 > 100 µM | SN12C > 100 µM | LXFL 529 > 100 µM | DLD-1 > 100 µM | KM-20L2 > 100 µM | SNB-78 > 100 µM | HL-60 > 100 µM | ACHN > 100 µM | DMS-114 > 100 µM | CCRF-CEM 77.3 µM | HOP-92 > 100 µM | SF-539 > 100 µM | SNB-75 > 100 µM | OVCAR-4 > 100 µM | MOLT-4 > 100 µM | SW-620 > 100 µM | IGROV-1 > 100 µM | UO-31 > 100 µM

CC(C)(C)OC(=O)N1CC(C)(C)N2C(=O)C3(CCCO3)C12 (stereo not drawn)
inactive: SK-MEL-5 > 100 µM | NCI-H23 > 100 µM | TK-10 > 100 µM | SF-295 > 100 µM | M14 > 100 µM | 786-0 > 100 µM | HOP-62 > 100 µM | M19-MEL > 100 µM | NCI-H522 > 100 µM | EKVX > 100 µM | NCI-H226 > 100 µM | SK-MEL-28 > 100 µM | RXF 393 > 100 µM | UACC-62 > 100 µM | HCC 2998 > 100 µM | HCT-116 > 100 µM | COLO 205 > 100 µM | U-251 45.3 µM | RPMI-8226 19.5 µM | LOX IMVI > 100 µM | DMS-273 37.8 µM | OVCAR-3 > 100 µM | KM12 > 100 µM | HT-29 > 100 µM | A498 > 100 µM | SNB-19 > 100 µM | NCI-H460 > 100 µM | SF-268 > 100 µM | A549 > 100 µM | OVCAR-8 > 100 µM | Malme-3M > 100 µM | SK-MEL-2 > 100 µM | K562 58.9 µM | OVCAR-5 > 100 µM | SK-OV-3 > 100 µM | HOP-18 > 100 µM | SN12C > 100 µM | LXFL 529 > 100 µM | DLD-1 > 100 µM | CAKI-1 > 100 µM | KM-20L2 > 100 µM | SNB-78 > 100 µM | HL-60 > 100 µM | ACHN > 100 µM | DMS-114 > 100 µM | CCRF-CEM 67.1 µM | HOP-92 > 100 µM | SF-539 > 100 µM | UACC-257 > 100 µM | SNB-75 > 100 µM | OVCAR-4 > 100 µM | MOLT-4 > 100 µM | SW-620 14.9 µM | IGROV-1 > 100 µM | UO-31 > 100 µM
> 100 µM: HCT-15

O=c1cc(-c2ccccc2)[nH]c2cc(F)cc(F)c12
inactive: SK-MEL-5 10.1 µM | NCI-H23 48.6 µM | TK-10 63.7 µM | SF-295 25.1 µM | M14 30.3 µM | 786-0 52.4 µM | HOP-62 26.5 µM | M19-MEL 31.6 µM | NCI-H522 11.9 µM | NCI-H226 20.9 µM | SK-MEL-28 27.2 µM | RXF 393 29.2 µM | UACC-62 16.1 µM | HCT-116 36.2 µM | COLO 205 16.1 µM | U-251 29.1 µM | RPMI-8226 30.1 µM | LOX IMVI 55.8 µM | DMS-273 10.3 µM | KM12 4.56 µM | HT-29 36.6 µM | NCI-H460 28.3 µM | SF-268 > 100 µM | A549 20.8 µM | OVCAR-8 57.5 µM | Malme-3M 16.7 µM | SK-MEL-2 18.2 µM | K562 11.9 µM | OVCAR-5 43.5 µM | SK-OV-3 19.7 µM | HOP-18 43 µM | SN12C 52.5 µM | LXFL 529 53.6 µM | DLD-1 28.5 µM | CAKI-1 21.8 µM | HL-60 21.8 µM | SR 3.75 µM | ACHN 50.9 µM | DMS-114 24.7 µM | CCRF-CEM 61.7 µM | HOP-92 41.6 µM | SF-539 24.4 µM | UACC-257 40.1 µM | SNB-75 14.8 µM | OVCAR-4 > 100 µM | MOLT-4 75.5 µM | SW-620 14.4 µM | IGROV-1 37.8 µM | UO-31 37 µM
6.59 µM: HCT-15
